The structures appear in SMILES notation.

For this assay, the target named is T1, human cathepsin K (Homo sapiens, UniProt P43235).
T1 construct: The proform of cathepsin K was converted to mature cathepsin K by brief exposure to pH 4; made in house; host or cells: baculovirus; Trichoplusia ni High Five cells (virus raised in Sf-9)
T1 sequence (P43235 115-329): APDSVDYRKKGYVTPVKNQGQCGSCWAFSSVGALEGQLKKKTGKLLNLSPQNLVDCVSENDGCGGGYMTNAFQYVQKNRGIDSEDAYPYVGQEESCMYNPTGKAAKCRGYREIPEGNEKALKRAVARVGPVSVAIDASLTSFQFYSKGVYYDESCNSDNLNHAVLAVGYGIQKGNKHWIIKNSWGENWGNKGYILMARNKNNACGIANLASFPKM
The assay can be described thus: Cathepsin K inhibition assay, human recombinant enzyme, fluorogenic substrate Cbz-Phe-Arg-AMC. It is filed as biochemical. As to conditions: Table 1, human cathepsin K; read-out: h Cat K IC50. The protocol:
All assays for cathepsin K were carried out with human and rat recombinant enzyme. Assays for cathepsins S ? V were also carried out with human recombinant enzyme. Assays for human cathepsins B, H, and L were carried out with enzyme, purchased from Athens Research and Technology, Inc., prepared from human liver tissue. […] A stock substrate solution of Cbz-Phe-Arg-AMC was prepared at a concentration of 50 mM in dimethyl sulfoxide. This substrate was diluted into the assay for a final substrate concentration of 10 μM in the rat cathepsin K, human cathepsin K, and human cathepsin B assays; a final substrate concentration of 5 μM in the human cathepsin L assay; and a final substrate concentration of 2 μM in the human cathepsin V assay.
All assays contained 10% dimethyl sulfoxide. […] All assays were conducted at 30° C. Product fluorescence (excitation at 360 nm; emission at 440 nm, (except cathepsin H which used excitation at 340 nm; emission at 420 nm)) was monitored with a PerSeptive Biosystems Cytofluor II fluorescence plate reader. Product progress curves were generated over 2.3 h monitoring the formation of 7-amino-4-methylcoumarin product (or β-naphthalamide for cathepsin H).
Human and rat Cathepsin K:
Two liters of Spodoptera frugiperda (Sf-9) cells (ATCC) were grown in Grace's Supplemented medium (Life Technologies) supplemented with 2 g/L glucose, 10% fetal bovine serum (HyClone) and 0.1% pluronic F-68 (Life Technologies). […] The cells continued to grow for 72 h post-infection, before the virus was harvested by centrifugation at 1400×g for 30 min.
One and one-half liters of Trichoplusia ni (T. ni) High Five (™) cells [JRH Biosciences, Woodland, Calif. […] The cells were grown for 24 h at 28° C., 50 RPM, and 50% dissolved oxygen. […] Media were separated from cells at a rate of 1 L/min using the Centritech 100 ™ continuous-flow centrifuge (DuPont) operating at 200×g.
Protein Purification: Media (human and rat) were filtered through a Whatman 3 filter, and then loaded onto a 25 mL. Poros HS II (26 mm×47 mm) cation exchange column equilibrated in 25 mM sodium acetate at pH 5.5 (equilibration buffer). The column was washed until the absorbance reached the baseline value, and then the protein was eluted with a linear gradient from 0-2 M sodium chloride in the equilibration buffer. Column fractions were analyzed by SDS-PAGE, N-terminal sequencing, and mass spectrometry. Fractions containing the proform of cathepsin K were pooled and frozen at −80° C. The proform was concentrated in an Amicon Centriprep 10 and fractionated with a Superdex 75 column (26 mm×600 mm, Pharmacia) equilibrated in 400 mM sodium chloride, 25 mM sodium acetate at pH 5.5.
Cathepsin K Activation: The proform of cathepsin K was converted to mature cathepsin K by brief exposure to pH 4 in the presence of 5 mM L-cysteine. Typically, 5 mM L-cysteine was added to 10 mL of approximately 1 mg/mL procathepsin K. One mL of this solution was diluted ten-fold into 450 mM sodium acetate at pH 4.0 containing 5 mM L-cysteine. This solution was reacted at 23° C. for 2 min before neutralization with 2 mL, 1.8 M sodium acetate at pH 6.0. The neutralized sample was added to the remaining 9 mL of procathepsin K. The mixture was incubated at 4° C. for 2-3 days. The activated cathepsin K was chromatographed on a Poros HS II column as described above.
Potential inhibitors were evaluated using the progress curve method. Assays were carried out in the presence of variable concentrations of test compound. Reactions were initiated by addition of buffered solutions of inhibitor and substrate to enzyme. Data analysis was conducted according to one of two procedures depending on the appearance of the progress curves in the presence of inhibitors. […] Ki values were calculated from IC50 values using equation 2 assuming a competitive model.
Turning to `CCCCC(NC(=O)O[C@@H]1CN(C(=O)Cc2cccnc2)CC1(C)C)C(=O)C(=O)N[C@H](C)c1ccccc1` (stereo partly drawn) [Example 33, (3S)-4,4-Dimethyl-1-(3-pyridinylacetyl)pyrrolidinyl 1-(oxo{[(1R)-1-phenylethyl]amino}acetyl)pentylcarbamate], the IC50 was in the range of 0.01 to 0.1 µM.

Regarding `CCCC[C@H](NC(=O)O[C@@H]1CN(C(=O)Cc2cccc(Oc3ccccc3)c2)CC1(C)C)C(=O)C(=O)N[C@H](C)c1ccccc1` [Example 23, (3S)-4,4-Dimethyl-1-[(3-phenoxyphenyl)acetyl]pyrrolidinyl (1S)-1-(oxo{[(1R)-1-phenylethyl]amino}acetyl)pentylcarbamate], the IC50 fell in the range of 0.01 to 0.1 µM.

In the case of `CCCC[C@H](NC(=O)O[C@@H]1CN(C(=O)OCc2cn(-c3ccccc3)nn2)CC1(C)C)C(=O)C(=O)N[C@H](C)c1ccccc1` [Example 46, (1-Phenyl-1H-1,2,3-triazol-4-yl)methyl (4S)-3,3-dimethyl-4-[({[(1S)-1-(oxo{[(1R)-1-phenylethyl]amino}acetyl)pentyl]amino}carbonyl)oxy]-1-pyrrolidinecarboxylate], the IC50 lay within 0.001 to 0.01 µM.

As for `CCCC[C@H](NC(=O)O[C@@H]1CN(C(=O)OCCc2ccccc2)CC1(C)C)C(=O)C(=O)N[C@H](C)c1ccccc1` [Example 45, 2-Phenylethyl (4S)-3,3-dimethyl-4-[({[(1S)-1-(oxo {[(1R)-1-phenylethyl]amino}acetyl)pentyl]amino}carbonyl)oxy]-1-pyrrolidinecarboxylate], the IC50 was 0.01 to 0.1 µM.

In the case of `CCCC[C@H](NC(=O)O[C@@H]1CN(C(=O)OCc2ccc(-c3ccccc3)cc2)CC1(C)C)C(=O)C(=O)N[C@H](C)c1ccccc1` [Example 40, [1,1′-biphenyl]-4-ylmethyl (4S)-3,3-dimethyl-4-[({[(1S)-1-(oxo{[(1R)-1-phenylethyl]amino}acetyl)pentyl]amino}carbonyl)oxy]-1-pyrrolidinecarboxylate], the IC50 is 0.001 to 0.01 µM.

As to `CCCC[C@H](NC(=O)O[C@@H]1CN(C(=O)Nc2ccc(C(F)(F)F)cc2)CC1(C)C)C(=O)C(=O)N[C@H](C)c1ccccc1` [Example 70, (3S)-4,4-Dimethyl-1-{[4-(trifluoromethyl)anilino]carbonyl}pyrrolidinyl (1S)-1-(oxo {[(1R)-1-phenylethyl]amino}acetyl)pentylcarbamate], the IC50 was 0.001 to 0.01 µM.

In the case of `CCCC[C@H](NC(=O)OC1C(=O)N(C)CC1(C)C)C(=O)C(=O)N[C@H](C)c1ccccc1` (stereo partly drawn) [Example 7, 1,4,4-trimethyl-2-oxo-3-pyrrolidinyl (1S)-1-(oxo{[(1R)-1-phenylethyl]amino}acetyl)pentylcarbamate], the IC50 was in the range of 0.01 to 0.1 µM.

As for `CCCC[C@H](NC(=O)O[C@@H]1CN(C(=O)c2c(-c3ccccc3)noc2C)CC1(C)C)C(=O)C(=O)N[C@H](C)c1ccccc1` [Example 27, (3S)-4,4-Dimethyl-1-[(5-methyl-3-phenyl-4-isoxazolyl)carbonyl]pyrrolidinyl (1S)-1-(oxo{[(1R)-1-phenylethyl]amino}acetyl)pentylcarbamate], the IC50 is 0.01 to 0.1 µM.

Turning to `CCCC[C@H](NC(=O)O[C@@H]1CN(C(=O)O[C@@H]2CCOC2)CC1(C)C)C(=O)C(=O)N[C@H](C)c1ccccc1` [Example 56, (3R)-Tetrahydro-3-furanyl (4S)-3,3-dimethyl-4-[({[(1S)-1-(oxo{[(1R)-1-phenylethyl]amino}acetyl)pentyl]amino}carbonyl)oxy]-1-pyrrolidinecarboxylate], the IC50 was 0.01 to 0.1 µM.

As for `CCCC[C@H](NC(=O)O[C@@H]1CN(C(=O)c2ccc3ccccc3c2)CC1(C)C)C(=O)C(=O)N[C@H](C)c1ccccc1` [Example 18, (3S)-4,4-Dimethyl-1-(2-naphthoyl)pyrrolidinyl (1S)-1-(oxo {[(1R)-1-phenylethyl]amino}acetyl)pentylcarbamate], the 50% inhibitory concentration (IC50) lay within 0.001 to 0.01 µM.

For `CCCC[C@H](NC(=O)O[C@@H]1CN(C(=O)Cc2ccc(C(C)(C)C)cc2)CC1(C)C)C(=O)C(=O)N[C@H](C)c1ccccc1` [Example 25, (3S)-1-[(4-tert-Butylphenyl)acetyl]-4,4-dimethylpyrrolidinyl (1S)-1-(oxo{[(1R)-1-phenylethyl]amino}acetyl)pentylcarbamate], the IC50 was 0.01 to 0.1 µM.

Regarding `CCCC[C@H](NC(=O)O[C@@H]1CN(C(=O)c2n[nH]c3ccccc23)CC1(C)C)C(=O)C(=O)N[C@H](C)c1ccccc1` [Example 36, (3S)-1-(1H-Indazol-3-ylcarbonyl)-4,4-dimethylpyrrolidinyl (1S)-1-(oxo {[(1R)-1-phenylethyl]amino}acetyl)pentylcarbamate], the IC50 was in the range of 0.001 to 0.01 µM.

For `CCCC[C@H](NC(=O)O[C@@H]1CN(C(C)=O)CC1(C)C)C(=O)C(=O)N[C@H](C)c1ccccc1` [Example 10, (3S)-1-Acetyl-4,4-dimethylpyrrolidinyl (1S)-1-(oxo{[(1R)-1-phenylethyl]amino}acetyl)pentylcarbamate], the IC50 was 0.01 to 0.1 µM.

As for `CCCC[C@H](NC(=O)O[C@@H]1CN(C(=O)c2cc3ccccc3[nH]2)CC1(C)C)C(=O)C(=O)N[C@H](C)c1ccccc1` [Example 32, (3S)-1-(1H-Indol-2-ylcarbonyl)-4,4-dimethylpyrrolidinyl (1S)-1-(oxo {[(1R)-1-phenylethyl]amino}acetyl)pentylcarbamate], the IC50 fell in the range of 0.01 to 0.1 µM.

Consider `CCCC[C@H](NC(=O)O[C@@H]1CN(C(=O)OCc2c(-c3c(Cl)cccc3Cl)noc2C)CC1(C)C)C(=O)C(=O)N[C@H](C)c1ccccc1` [Example 53, [3-(2,6-Dichlorophenyl)-5-methyl-4-isoxazolyl]methyl (4S)-3,3-dimethyl-4-[({[(1S)-1-(oxo{[(1R)-1-phenylethyl]amino}acetyl)pentyl]amino}carbonyl)oxy]-1-pyrrolidinecarboxylate], for which the IC50 fell in the range of 0.001 to 0.01 µM.

For `CCCC[C@H](NC(=O)O[C@@H]1CN(C(=O)OCc2c(C)noc2-c2cc(C)on2)CC1(C)C)C(=O)C(=O)N[C@H](C)c1ccccc1` [Example 50, [3-Methyl-5-(5-methyl-isoxazol-3-yl)-4-isoxazolyl]methyl (4S)-3,3-dimethyl-4-[({[(1S)-1-(oxo{[(1R)-1-phenylethyl]amino}acetyl)pentyl]amino}carbonyl)oxy]-1-pyrrolidinecarboxylate], the IC50 was 0.01 to 0.1 µM.

For the compound `CCCC[C@H](NC(=O)O[C@@H]1CN(c2nc3ccccc3s2)CC1(C)C)C(=O)C(=O)Nc1ccn[nH]1` [Example 81, (3S)-1-(1,3-Benzothiazol-2-yl)-4,4-dimethylpyrrolidinyl (1S)-1-[oxo(1H-pyrazol-5-ylamino)acetyl]pentylcarbamate], the IC50 was in the range of 0.0001 to 0.001 µM.

With `CCCC[C@H](NC(=O)O[C@@H]1CN(C(=O)c2ccc3c(c2)OCO3)CC1(C)C)C(=O)C(=O)N[C@H](C)c1ccccc1` [Example 16, (3S)-1-(1,3-Benzodioxol-5-ylcarbonyl)-4,4-dimethylpyrrolidinyl (1S)-1-(oxo{[(1R)-1-phenylethyl]amino}acetyl)pentylcarbamate], the IC50 lay within 0.001 to 0.01 µM.

With `CCCC[C@H](NC(=O)O[C@@H]1CN(C(=O)c2ccc3[nH]ccc3c2)CC1(C)C)C(=O)C(=O)N[C@H](C)c1ccccc1` [Example 21, (3S)-1-(1H-Indol-5-ylcarbonyl)-4,4-dimethylpyrrolidinyl (1S)-1-(oxo{[(1R)-1-phenylethyl]amino}acetyl)pentylcarbamate], the IC50 is 0.001 to 0.01 µM.
